Our source for the AC50 values is ChEMBL document CHEMBL3727356, “Therapeutic compounds and compositions” (2014).

Each structure is given as a SMILES string.

Test [1] has as its target Pyruvate kinase PKLR (Homo sapiens, UniProt P30613, R510Q). Briefly: Activation of PKR R510Q mutant (unknown origin) incubated for 60 mins in presence of ADP, PEP and NADH by Spectraax microplate reader based assay.
Test [2] has as its target Pyruvate kinase PKLR (Homo sapiens, UniProt P30613, R532W). The experiment in a line: Activation of PKR R532W mutant (unknown origin) incubated for 60 mins in presence of ADP, PEP and NADH by Spectraax microplate reader based assay.
Test [3] deals with T1, Pyruvate kinase PKLR (Homo sapiens, UniProt P30613). Briefly: Activation of wild type PKR (unknown origin) incubated for 60 mins in presence of ADP, PEP and NADH by Spectraax microplate reader based assay.
T1 sequence (P30613 whole entry): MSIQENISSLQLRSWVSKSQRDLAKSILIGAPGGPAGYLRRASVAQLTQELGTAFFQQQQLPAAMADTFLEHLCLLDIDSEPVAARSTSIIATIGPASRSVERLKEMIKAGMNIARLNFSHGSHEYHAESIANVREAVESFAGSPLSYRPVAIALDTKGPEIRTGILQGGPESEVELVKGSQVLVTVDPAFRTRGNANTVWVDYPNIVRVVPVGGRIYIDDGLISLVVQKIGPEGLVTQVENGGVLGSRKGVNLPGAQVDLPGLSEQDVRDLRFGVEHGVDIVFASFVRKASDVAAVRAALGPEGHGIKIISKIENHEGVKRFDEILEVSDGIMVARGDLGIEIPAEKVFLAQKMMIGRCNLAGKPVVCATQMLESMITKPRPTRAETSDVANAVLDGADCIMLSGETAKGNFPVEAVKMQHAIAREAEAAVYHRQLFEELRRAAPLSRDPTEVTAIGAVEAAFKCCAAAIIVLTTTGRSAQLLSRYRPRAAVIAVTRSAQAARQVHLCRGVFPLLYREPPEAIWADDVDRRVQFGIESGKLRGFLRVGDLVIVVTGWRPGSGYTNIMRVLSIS
The target in test [4] is T1, Pyruvate kinase PKLR. The experiment in a line: Activation of wild type PKR (unknown origin) by cell based assay.

Chain of Pyruvate kinase PKLR (Homo sapiens, UniProt P30613, R510Q) (P30613 whole entry R510Q): as the sequence (P30613 whole entry) above, with R510Q counted along it
Chain of Pyruvate kinase PKLR (Homo sapiens, UniProt P30613, R532W) (P30613 whole entry R532W): as the sequence (P30613 whole entry) above, with R532W counted along it

In general, AC50 refers to the midpoint of the concentration-response curve, whichever way the signal moves. Take `Cc1cc(C(=O)N2CCC(O)(c3cccc(Cl)c3)CC2)ccc1NS(=O)(=O)c1cccc2cccnc12`: the AC50 in test [1] was no more than 1000 nM; in test [2] it was less than 100 nM; in test [3], less than 100 nM; in test [4], less than 100 nM.

For the compound `O=C(c1ccc(NS(=O)(=O)c2cccc3cccnc23)c(F)c1)N1CCC(O)(c2ccccc2Cl)CC1`, the AC50 in test [1], in test [2], in test [3] and in test [4] was less than 100 nM each time.

As for `CC(C)CC1(O)CCN(C(=O)c2ccc(NS(=O)(=O)c3cccc4sc(N)nc34)cc2)CC1`, the AC50 in test [1], in test [2], in test [3] and in test [4] was less than 100 nM throughout.

As for `O=C(c1ccc(NS(=O)(=O)c2cccc3cccnc23)cc1OC(F)(F)F)N1CCC(O)(c2ccccc2Cl)CC1`, the AC50 in test [1], in test [2], in test [3] and in test [4] was less than 100 nM throughout.

Consider `O=C(c1ccc(NS(=O)(=O)c2cccc3cccnc23)cc1)N1CCC(O)(Cc2ccccc2C(F)(F)F)CC1`, for which the AC50 in test [1], in test [2], in test [3] and in test [4] was less than 100 nM in each case.

With `O=C(c1ccc(NS(=O)(=O)c2ccc(F)c3nccnc23)cc1)N1CCC(O)(c2cccc(F)c2F)CC1`, the AC50 is no more than 1000 nM in test [1], less than 100 nM in test [2], less than 100 nM in test [3] and no less than 1010 nM in test [4].

With `O=C(c1ccc(NS(=O)(=O)c2cccc3nccnc23)cc1)N1CCC(O)(CCC=C(F)F)CC1`, the AC50 in test [1], in test [2], in test [3] and in test [4] was less than 100 nM each time.

Turning to `O=C(c1ccc(NS(=O)(=O)c2cccc3cccnc23)cc1)N1CCC(O)(c2ccccc2C(F)(F)F)CC1`, the AC50 in test [1], in test [2], in test [3] and in test [4] was less than 100 nM in each case.

For `CC(C)CC1(O)CCN(C(=O)c2ccc(NS(=O)(=O)c3cccc4c(O)ncnc34)cc2)CC1`, the AC50 in test [1], in test [2], in test [3] and in test [4] was less than 100 nM each time.

As for `O=C(c1ccc(NS(=O)(=O)c2ccc3nsnc3c2)cc1)N1CCC(O)(Cc2ccccc2)CC1`, the AC50 in test [1] was no more than 1000 nM; in test [2], less than 100 nM; in test [3] it was less than 100 nM; in test [4], no more than 1000 nM.

With `O=C(c1ccc(NS(=O)(=O)c2cccc3cccnc23)cc1)N1CCC(O)(c2cccc(F)c2F)CC1`, the AC50 in test [1], in test [2], in test [3] and in test [4] was less than 100 nM throughout.

For the compound `CC(C)CC1(CO)CCN(C(=O)c2ccc(NS(=O)(=O)c3cccc4cccnc34)cc2)CC1`, the AC50 in test [1], in test [2], in test [3] and in test [4] was less than 100 nM in each case.

Turning to `Cc1ccccc1C1(O)CCN(C(=O)c2ccc(NS(=O)(=O)c3cccc4cccnc34)cc2)CC1`, the AC50 in test [1], in test [2], in test [3] and in test [4] was less than 100 nM each time.

As for `O=C(c1ccc(NS(=O)(=O)c2cccc3cccnc23)cc1)N1CCC(O)(c2ccc(F)c(Br)n2)CC1`, the AC50 in test [1], in test [2], in test [3] and in test [4] was less than 100 nM in each case.

As for `Nc1cnc2c(S(=O)(=O)Nc3ccc(C(=O)N4CCC(O)(CCCC(F)(F)F)CC4)cc3)cccc2n1`, the AC50 in test [1], in test [2], in test [3] and in test [4] was less than 100 nM throughout.

Take `O=C(c1ccc(NS(=O)(=O)c2cccc3cccnc23)cc1)N1CCC(O)(c2ccc(F)cc2Cl)CC1`: the AC50 in test [1], in test [2], in test [3] and in test [4] was less than 100 nM in each case.

Turning to `O=C(c1ccc(NS(=O)(=O)c2cccc3cc(F)cnc23)cc1)N1CCC(O)(Cc2ccccc2)CC1`, the AC50 in test [1], in test [2], in test [3] and in test [4] was less than 100 nM each time.

`Nc1cnc2c(S(=O)(=O)Nc3ccc(C(=O)N4CCC(O)(c5cccc(F)c5F)CC4)cc3)cccc2n1`: the AC50 in test [1], in test [2], in test [3] and in test [4] was less than 100 nM in each case.

Turning to `CC(C)(C)CC1(O)CCN(C(=O)c2ccc(NS(=O)(=O)c3cccc4scnc34)cc2)CC1`, the AC50 in test [1], in test [2], in test [3] and in test [4] was less than 100 nM each time.

Turning to `Cc1nc(F)ccc1C1(O)CCN(C(=O)c2ccc(NS(=O)(=O)c3cccc4cccnc34)cc2)CC1`, the AC50 in test [1], in test [2], in test [3] and in test [4] was less than 100 nM in each case.

On to `CC(C)CCC1(O)CCN(C(=O)c2ccc(NS(=O)(=O)c3cccc4scnc34)cc2)CC1`, for which the AC50 in test [1], in test [2], in test [3] and in test [4] was less than 100 nM throughout.

For `Cc1cnc2cccc(S(=O)(=O)Nc3ccc(C(=O)N4CCC(O)(CC(C)C)CC4)cc3)c2n1`, the AC50 in test [1], in test [2], in test [3] and in test [4] was less than 100 nM each time.

As for `CC(C)CC1(O)CCN(C(=O)c2ccc(NS(=O)(=O)c3cccc4ccc(N)nc34)cc2)CC1`, the AC50 in test [1], in test [2], in test [3] and in test [4] was less than 100 nM throughout.

Consider `CC(C)CC1(O)CCN(C(=O)c2ccc(NS(=O)(=O)c3cccc4ncc(N)nc34)cc2)CC1`, for which the AC50 in test [1], in test [2], in test [3] and in test [4] was less than 100 nM in each case.

On to `CC1(CC2(O)CCN(C(=O)c3ccc(NS(=O)(=O)c4cccc5cccnc45)cc3)CC2)CC1`, for which the AC50 in test [1], in test [2], in test [3] and in test [4] was less than 100 nM each time.

For the compound `Cc1cc(F)ccc1C1(O)CCN(C(=O)c2ccc(NS(=O)(=O)c3cccc4cccnc34)cc2)CC1`, the AC50 in test [1], in test [2], in test [3] and in test [4] was less than 100 nM each time.

In the case of `O=C(c1ccc(NS(=O)(=O)c2cccc3cccnc23)cc1)N1CCC(O)(Cc2ccccc2)CC1`, the AC50 in test [1], in test [2], in test [3] and in test [4] was less than 100 nM in each case.

With `Cc1cc(C(=O)N2CCC(O)(c3ccccc3Cl)CC2)ccc1NS(=O)(=O)c1cccc2cccnc12`, the AC50 in test [1], in test [2], in test [3] and in test [4] was less than 100 nM throughout.

For `O=C(c1ccc(NS(=O)(=O)c2cccc3nccnc23)cc1)N1CCC(O)(Cc2ccccc2C(F)(F)F)CC1`, the AC50 in test [1], in test [2], in test [3] and in test [4] was less than 100 nM each time.

Regarding `CC(C)CC1(O)CCN(C(=O)c2ccc(NS(=O)(=O)c3cccc4cccnc34)cc2)CC1`, the AC50 in test [1], in test [2], in test [3] and in test [4] was less than 100 nM in each case.

Turning to `O=C(c1ccc(NS(=O)(=O)c2cccc3cccnc23)cc1)N1CCC(O)(CC2CC2)CC1`, the AC50 in test [1], in test [2], in test [3] and in test [4] was less than 100 nM each time.

Take `Cc1nscc1CC1(O)CCN(C(=O)c2ccc(NS(=O)(=O)c3cccc4nccnc34)cc2)CC1`: the AC50 in test [1], in test [2], in test [3] and in test [4] was less than 100 nM each time.

Turning to `O=C(c1ccc(NS(=O)(=O)c2cccc3scnc23)cc1)N1CCC(O)(CCCC(F)F)CC1`, the AC50 in test [1], in test [2], in test [3] and in test [4] was less than 100 nM throughout.

As to `O=C(c1ccc(NS(=O)(=O)c2cccc3c(O)ncnc23)cc1)N1CCC(O)(CCCC(F)(F)F)CC1`, the AC50 in test [1], in test [2], in test [3] and in test [4] was less than 100 nM each time.

In the case of `C=C(CC1(O)CCN(C(=O)c2ccc(NS(=O)(=O)c3cccc4scnc34)cc2)CC1)C(F)(F)F`, the AC50 in test [1], in test [2], in test [3] and in test [4] was less than 100 nM in each case.

Take `CC(C)CC1(O)CCN(C(=O)c2ccc(NS(=O)(=O)c3cccc4nccnc34)cc2)CC1`: the AC50 in test [1], in test [2], in test [3] and in test [4] was less than 100 nM in each case.

Take `O=C(c1ccc(NS(=O)(=O)c2cccc3cccnc23)cc1)N1CCC(O)(Cc2cccc(F)c2)CC1`: the AC50 in test [1], in test [2], in test [3] and in test [4] was less than 100 nM each time.

For `Cc1cc(C(=O)N2CCC(O)(Cc3ccccc3)CC2)ccc1NS(=O)(=O)c1cccc2cccnc12`, the AC50 in test [1], in test [2], in test [3] and in test [4] was less than 100 nM throughout.

Take `CC(C)CC1(C=O)CCN(C(=O)c2ccc(NS(=O)(=O)c3cccc4cccnc34)cc2)CC1`: the AC50 in test [1], in test [2], in test [3] and in test [4] was less than 100 nM each time.

In the case of `CC(C)CC1(O)CCN(C(=O)c2ccc(NS(=O)(=O)c3cccc4nc(N)cnc34)cc2)CC1`, the AC50 in test [1], in test [2], in test [3] and in test [4] was less than 100 nM in each case.
